According to article PMC4137987 (Chemical Research in Toxicology, 2014):

How the values were obtained:
[1] = Excretion in urine and feces over 24 h after inhalation of PCB3; type: in vivo, female Sprague–Dawley (SD) rats; conditions: 0–24 h; PCB3 35 μg/rat; n = 3
[2] = Serum concentration and clearance of PCB3 metabolites after inhalation; type: in vivo, female Sprague–Dawley (SD) rats; conditions: 0 h postexposure; PCB3 26 μg/rat; mean ± SD, n = 3
[3] = test system: granulosa and theca cells derived from porcine ovary; conditions: cited from earlier work
[4] = Serum chemistry and serum free thyroxine; type: in vivo, female Sprague–Dawley (SD) rats; conditions: rats exposed to PCB3 for 2 h
urinary 8-oxo-dG = test: Urinary 8-oxo-dG analysis; type: in vivo, female Sprague–Dawley (SD) rats; conditions: exposed rats; composite 24 h urine; not significant vs control (p = 0.23)

Oc1ccc(-c2ccc(Cl)cc2)cc1 [4′OH-PCB3]
Metabolite excreted in urine, percentage of dose [1]: 1.0 ± 0.5%
Serum concentration [2]: 7 ± 1 ng/mL

Clc1ccc(-c2ccccc2)cc1 [PCB3, 4-chlorobiphenyl]
Unchanged PCB3 in feces, percentage of dose [1]: 4 ± 2%
Unchanged PCB3 in urine, percentage of dose [1]: 2 ± 1%
Estradiol level in the medium [3]: significant increase
Serum chemistry parameters (renal function, serum protein, T4, electrolyte balance, pancreas function, liver function, lipid metabolism) [4]: within normal ranges
8-oxo-dG level in 24 h urine (urinary 8-oxo-dG): 160 ± 35 pg/mg creatinine
